Test results from PubChem BioAssay (NCI).
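Values below derive from 48-hour exposures of cells grown in 96-well plates, with endpoints linearly interpolated between the two concentrations bracketing the appropriate inhibition level. TGI marks complete inhibition of growth.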

Tests used:
Assay in all cases: growth of human tumour cells (NCI), 48 h
[1] = system: 786-0 renal
[2] = system: A498 renal
[3] = system: ACHN renal
[4] = system: BT-549 breast
[5] = system: CAKI-1 renal
[6] = system: CCRF-CEM leukemia
[7] = system: DU-145 prostate
[8] = system: HCC-2998 colon
[9] = system: HCT-116 colon
[10] = system: HCT-15 colon
[11] = system: HL-60(TB) leukemia
[12] = system: HOP-62 NSCLC
[13] = system: HT29 colon
[14] = system: IGROV1 ovarian
[15] = system: K-562 leukemia
[16] = system: LOX IMVI melanoma
[17] = system: M14 melanoma
[18] = system: MALME-3M melanoma
[19] = system: MCF7 breast
[20] = system: MDA-MB-231 breast
[21] = system: MDA-MB-435
[22] = system: MDA-N
[23] = system: MOLT-4 leukemia
[24] = system: NCI-H226 lung
[25] = system: NCI-H23 lung
[26] = system: NCI-H460 lung
[27] = system: NCI-H522 lung
[28] = system: OVCAR-3 ovarian
[29] = system: OVCAR-4 ovarian
[30] = system: OVCAR-5 ovarian
[31] = system: OVCAR-8 ovarian
[32] = system: PC-3 prostate
[33] = system: RPMI-8226 leukemia
[34] = system: SF-268 CNS
[35] = system: SK-MEL-2 melanoma
[36] = system: SK-MEL-28 melanoma
[37] = system: SN12C renal
[38] = system: SNB-19 CNS
[39] = system: SNB-75 CNS
[40] = system: SR leukemia
[41] = system: T-47D breast
[42] = system: TK-10 renal
[43] = system: U251 CNS
[44] = system: UACC-257 melanoma
[45] = system: UACC-62 melanoma
[46] = system: UO-31 renal

Question: What does the source list for `COc1ccc(OC)c2c1ccc1c(C)c3ccccc3c(C)c12`?
Answer: TGI [1]: > 100 µM; TGI [2]: > 100 µM; TGI [3]: > 100 µM; TGI [4]: > 100 µM; TGI [5]: > 100 µM; TGI [6]: > 100 µM; TGI [7]: > 100 µM; TGI [8]: 45.8 µM; TGI [9]: > 100 µM; TGI [10]: > 100 µM; TGI [11]: > 100 µM; TGI [12]: > 100 µM; TGI [13]: > 100 µM; TGI [14]: > 100 µM; TGI [15]: > 100 µM; TGI [16]: > 100 µM; TGI [17]: > 100 µM; TGI [18]: > 100 µM; TGI [19]: > 100 µM; TGI [20]: > 100 µM; TGI [21]: > 100 µM; TGI [22]: > 100 µM; TGI [23]: > 100 µM; TGI [24]: > 100 µM; TGI [25]: > 100 µM; TGI [26]: > 100 µM; TGI [27]: > 100 µM; TGI [28]: > 100 µM; TGI [29]: > 100 µM; TGI [30]: > 100 µM; TGI [31]: > 100 µM; TGI [32]: > 100 µM; TGI [33]: > 100 µM; TGI [34]: > 100 µM; TGI [35]: > 100 µM; TGI [36]: > 100 µM; TGI [37]: > 100 µM; TGI [38]: > 100 µM; TGI [39]: > 100 µM; TGI [40]: > 100 µM; TGI [41]: > 100 µM; TGI [42]: > 100 µM; TGI [43]: > 100 µM; TGI [44]: > 100 µM; TGI [45]: > 100 µM; TGI [46]: > 100 µM
